In brackets after ≈: the same amount, converted by molar mass. Where two headings read alike, the source gives them in different places.
What was measured:
Experiment in all cases: in vitro antibacterial activity (MIC), BHI agar dilution
Assay type in all cases: cell-based
[1] = tested on: Strep. pneum.; conditions: Strep. pneum. 012, 18 hours at 37° C
Procedure: (§1) The compounds of the formula (3) are tested for in vitro antibacterial activity by standard methods in which the minimum inhibitory concentrations (MIC's) in mcg/ml against one or more microorganisms is measured. One such procedure is the one recommended by the International Collaborative Study on Antibiotic Sensitivity Testing (Ericcson and Sherris, Acta. Pathologica et Microbiologia Scandinav, Supp. 217, Section B: 64-68 [1971]), and employs brain heart infusion (BHI) agar and an inocula replicating device. Overnight growth tubes are diluted 100 fold for use as the standard inoculum (20,000-10,000 cells in approximately 0.002 ml. are placed on the agar surface; 20 ml. of BHI agar/dish). Twelve 2 fold dilutions of the test compound are employed, with initial concentration of the test drug being 200 mcg/ml. Single colonies are disregarded when reading plates after 18 hours at 37° C. The susceptibility (MIC) of the test organism is accepted as the lowest concentration of compound capable of producing complete inhibition of growth as judged by the naked eye.

[2] = tested on: Strep. pyog.
Procedure: as §1

[3] = tested on: Hem. infl.
Procedure: as §1

[4] = tested on: Staph. aureus
Procedure: as §1

[5] = tested on: Pat. mult.
Procedure: as §1

[6] = tested on: Neis. sic.; conditions: Neis. sic. 000, 18 hours at 37° C
Procedure: as §1

[7] = tested on: Strep. faec.; conditions: Strep. faec. 006, 18 hours at 37° C
Procedure: as §1

[8] = tested on: E. coli; conditions: E. coli 470, 18 hours at 37° C
Procedure: as §1

[9] = tested on: Staph. epid.; conditions: Staph. epid. 111, 18 hours at 37° C
Procedure: as §1

[10] = Staph. aureus 052, 18 hours at 37° C
[11] = Staph. aureus 110, 18 hours at 37° C
[12] = 18 h, Strep. pyog. 054, 18 hours at 37° C, read-out: MIC
[13] = 18 h, Strep. pyog. 203, 18 hours at 37° C, read-out: MIC
[14] = 18 h, Hem. infl. 038, 18 hours at 37° C, read-out: MIC
[15] = 18 h, Hem. infl. 042, 18 hours at 37° C, read-out: MIC
[16] = 18 h, Hem. infl. 073, 18 hours at 37° C, read-out: MIC
[17] = 18 h, Hem. infl. 078, 18 hours at 37° C, read-out: MIC
[18] = 18 h, Hem. infl. 081, 18 hours at 37° C, read-out: MIC
[19] = Staphylococcus aureus, Staph. aureus 005, 18 hours at 37° C, read-out: MIC
[20] = Escherichia coli, read-out: MIC

## 4"-0-Acetyl-12,12'-anhydro-9-deoxo-11-deoxy-9R,11-(thiocarbonyldioxy)erythromycin A [Compound 3a]
[1]
  MIC: 3.12 µg/mL
[2]; Strep. pyog. 054, 18 hours at 37° C
  MIC: 50 µg/mL
[2]; Strep. pyog. 203, 18 hours at 37° C
  MIC: 3.12 µg/mL
[3]; Hem. infl. 012, 18 hours at 37° C
  MIC: > 50 µg/mL
[3]; Hem. infl. 038, 18 hours at 37° C
  MIC: > 50 µg/mL
[3]; Hem. infl. 042, 18 hours at 37° C
  MIC: 50 µg/mL
[3]; Hem. infl. 073, 18 hours at 37° C
  MIC: 50 µg/mL
[3]; Hem. infl. 078, 18 hours at 37° C
  MIC: 50 µg/mL
[3]; Hem. infl. 081, 18 hours at 37° C
  MIC: 50 µg/mL
[4]; Staph. aureus 005, 18 hours at 37° C
  MIC: 50 µg/mL
[4]; [10]
  MIC: 50 µg/mL
[4]; [11]
  MIC: 50 µg/mL
[5]; Pat. mult. 001, BHI agar, 18 hours at 37° C
  MIC: 25 µg/mL
[6]
  MIC: 50 µg/mL
[7]
  MIC: 50 µg/mL
[8]
  MIC: 6.25 µg/mL
[9]
  MIC: 12.5 µg/mL

## C=C1C(CC)OC(=O)C(C)C(OC2CC(C)(OC)C(OC(C)=O)C(C)O2)C(C)C(OC2OC(C)CC(N(C)C)C2O)C(C)(O)CC(C)C(O)C(C)C1O (stereo not drawn) [Compound 3b, 4"-O-Acetyl-12,12'anhydro-9-deoxo-9R-hydroxyerythromycin A]
[2]; [12]
  MIC: > 50 µg/mL
[2]; [13]
  MIC: 3.12 µg/mL (≈ 4.11 µM)
[3]; [14]
  MIC: 50 µg/mL (≈ 65.8 µM)
[3]; [15]
  MIC: > 50 µg/mL
[3]; [16]
  MIC: > 50 µg/mL
[3]; [17]
  MIC: > 50 µg/mL
[3]; [18]
  MIC: > 50 µg/mL
[4]; [10]
  MIC: > 50 µg/mL
[4]; [11]
  MIC: > 50 µg/mL
[4]; [19]
  MIC: > 50 µg/mL
[5]; 18 h
  MIC: 25 µg/mL (≈ 32.9 µM)
[6]; read-out: MIC
  MIC: 50 µg/mL (≈ 65.8 µM)
[7]; read-out: MIC
  MIC: > 50 µg/mL
[8]; [20]
  MIC: 25 µg/mL (≈ 32.9 µM)
[9]; read-out: MIC
  MIC: > 50 µg/mL

## CCC1OC(=O)C(C)C(OC2CC(C)(OC)C(OC(C)=O)C(C)O2)C(C)C(OC2OC(C)CC(N(C)C)C2O)C(C)(O)CC(C)C(O)C(C)C(O)C1(O)CO (stereo not drawn) [Compound 3d, 4"-O-Acetyl-9-deoxo-9R-12'-dihydroxyerythromycin A]
[2]; [12]
  MIC: > 50 µg/mL
[2]; [13]
  MIC: 3.12 µg/mL (≈ 3.93 µM)
[3]; [14]
  MIC: > 50 µg/mL
[3]; [15]
  MIC: 50 µg/mL (≈ 63 µM)
[3]; [16]
  MIC: 50 µg/mL (≈ 63 µM)
[3]; [17]
  MIC: > 50 µg/mL
[3]; [18]
  MIC: > 50 µg/mL
[4]; [10]
  MIC: > 50 µg/mL
[4]; [11]
  MIC: > 50 µg/mL
[4]; [19]
  MIC: > 50 µg/mL
[5]; Pat. mult. 001, BHI agar, 18 hours at 37° C, read-out: MIC
  MIC: 50 µg/mL (≈ 63 µM)
[6]; read-out: MIC
  MIC: > 50 µg/mL
[7]; read-out: MIC
  MIC: 25 µg/mL (≈ 31.5 µM)
[8]; [20]
  MIC: 12.5 µg/mL (≈ 15.7 µM)
[9]; read-out: MIC
  MIC: > 50 µg/mL

Reference: patent US4857641A, “C.12 modified erythromycin A derivatives” (Pfizer Inc., priority 1987, dated 1989)
